Source: the NIST ThermoML archive (doi:10.1016/j.jct.2007.02.004)

Tests used:
[1] = 293.15 K; 101.33 kPa; Liquid
[2] = refractive index (Na D-line) (dimensionless); conditions: 293.15 K; 101.33 kPa; Liquid; Standard Abbe refractometry
[3] = xn = mol fraction of the nth substance listed; conditions: 101 kPa, Liquid

CC(=O)c1ccccc1 [acetophenone]
Conditions | mass density [kg/m3] | refractive index
[1] | 1027.93 | –
[2] | – | 1.5336

CC(=O)c1ccccc1 [acetophenone] + CCCCCCO
mass density [kg/m3], [3]
Conditions | 293.15 K | 303.15 K | 313.15 K | 323.15 K
x1 = 0.0498 | 828.67 | 821.42 | 813.97 | 806.47
x1 = 0.1009 | 838.84 | 831.49 | 823.85 | 816.28
x1 = 0.1517 | 848.99 | 841.56 | 833.75 | 826.11
x1 = 0.2106 | 860.83 | 853.32 | 845.32 | 837.59
x1 = 0.2474 | 868.27 | 860.71 | 852.58 | 844.8
x1 = 0.3028 | 879.54 | 871.9 | 863.61 | 855.74
x1 = 0.3426 | 887.68 | 879.99 | 871.57 | 863.65
x1 = 0.3978 | 899.04 | 891.28 | 882.7 | 874.71
x1 = 0.4512 | 910.1 | 902.26 | 893.55 | 885.48
x1 = 0.4985 | 919.95 | 912.05 | 903.23 | 895.1
x1 = 0.5526 | 931.29 | 923.31 | 914.38 | 906.19
x1 = 0.6071 | 942.79 | 934.73 | 925.7 | 917.44
x1 = 0.6491 | 951.7 | 943.59 | 934.49 | 926.17
x1 = 0.7101 | 964.72 | 956.53 | 947.35 | 938.95
x1 = 0.7485 | 972.96 | 964.73 | 955.5 | 947.06
x1 = 0.8019 | 984.49 | 976.21 | 966.9 | 958.4
x1 = 0.8521 | 995.4 | 987.06 | 977.72 | 969.16
x1 = 0.9045 | 1006.85 | 998.46 | 989.09 | 980.48
x1 = 0.9554 | 1018.05 | 1009.61 | 1000.23 | 991.56

CC(=O)c1ccccc1 [acetophenone] + CCOC(=O)OCC
mass density [kg/m3], [3]
Conditions | 293.15 K | 303.15 K | 313.15 K | 323.15 K
x2 = 0.0511 | 1025.44 | 1016.4 | 1007.58 | 998.79
x2 = 0.1014 | 1023.08 | 1014.09 | 1005.19 | 996.27
x2 = 0.1501 | 1020.74 | 1011.77 | 1002.73 | 993.68
x2 = 0.1996 | 1018.43 | 1009.35 | 1000.2 | 991.08
x2 = 0.2465 | 1016.19 | 1007.04 | 997.78 | 988.56
x2 = 0.3041 | 1013.28 | 1004.02 | 994.63 | 985.24
x2 = 0.3467 | 1011.14 | 1001.78 | 992.31 | 982.8
x2 = 0.4001 | 1008.46 | 998.99 | 989.35 | 979.74
x2 = 0.4507 | 1005.87 | 996.27 | 986.55 | 976.77
x2 = 0.4888 | 1003.88 | 994.18 | 984.35 | 974.49
x2 = 0.5506 | 1000.64 | 990.73 | 980.71 | 970.76
x2 = 0.6038 | 997.77 | 987.73 | 977.48 | 967.47
x2 = 0.6498 | 995.25 | 985.06 | 974.69 | 964.54
x2 = 0.7104 | 991.92 | 981.54 | 971.04 | 960.63
x2 = 0.7513 | 989.53 | 979.05 | 968.47 | 957.86
x2 = 0.8078 | 986.29 | 975.68 | 964.89 | 954.13
x2 = 0.8522 | 983.66 | 972.91 | 961.99 | 951.07
x2 = 0.8993 | 980.83 | 969.91 | 958.99 | 947.76
x2 = 0.9488 | 977.82 | 966.78 | 955.63 | 944.32

CCOC(=O)OCC [diethyl carbonate]
Conditions | mass density [kg/m3] | refractive index
[1] | 974.65 | –
[2] | – | 1.3845

CCOC(=O)OCC [diethyl carbonate] + CCCCCCO
mass density [kg/m3], [3]
Conditions | 293.15 K | 303.15 K | 313.15 K | 323.15 K
x1 = 0.0502 | 825.96 | 818.55 | 811.04 | 803.29
x1 = 0.1123 | 834.86 | 827.16 | 819.37 | 811.3
x1 = 0.1499 | 840.29 | 832.48 | 824.54 | 816.2
x1 = 0.2103 | 849.1 | 841.04 | 832.78 | 824.2
x1 = 0.2508 | 855.05 | 846.79 | 838.35 | 829.57
x1 = 0.3121 | 864.19 | 855.69 | 846.97 | 837.88
x1 = 0.3576 | 871.02 | 862.23 | 853.42 | 844.05
x1 = 0.4113 | 879.15 | 870.21 | 861.12 | 851.48
x1 = 0.4632 | 887.08 | 877.88 | 868.59 | 858.73
x1 = 0.5111 | 894.51 | 885.13 | 875.61 | 865.59
x1 = 0.552 | 900.88 | 891.35 | 881.55 | 871.51
x1 = 0.6008 | 908.59 | 898.87 | 888.91 | 878.65
x1 = 0.6498 | 916.39 | 906.42 | 896.35 | 885.85
x1 = 0.7108 | 926.19 | 915.93 | 905.65 | 894.96
x1 = 0.7554 | 933.45 | 923.08 | 912.55 | 901.77
x1 = 0.8112 | 942.65 | 932.03 | 921.16 | 910.41
x1 = 0.8501 | 949.13 | 938.29 | 927.49 | 916.42
x1 = 0.9002 | 957.5 | 946.57 | 935.57 | 924.3
x1 = 0.9555 | 966.89 | 955.77 | 944.49 | 933.24

CCCCCCO [hexan-1-ol]
Conditions | mass density [kg/m3] | refractive index
[1] | 818.84 | –
[2] | – | 1.4178
